Reference: US7109243B2 (IRM LLC, priority 2003, dated 2006)

Legend:
Cathepsin K = molecular target: T1, Cathepsin K (Homo sapiens, UniProt P43235); assay: Cathepsin K inhibition assay (fluorogenic peptide substrate); selectivity ratio vs cathepsin S; assay type: biochemical; conditions: ratio of cathepsin K inhibition constant to cathepsin S inhibition constant; Table II
T1 sequence (P43235 115-329): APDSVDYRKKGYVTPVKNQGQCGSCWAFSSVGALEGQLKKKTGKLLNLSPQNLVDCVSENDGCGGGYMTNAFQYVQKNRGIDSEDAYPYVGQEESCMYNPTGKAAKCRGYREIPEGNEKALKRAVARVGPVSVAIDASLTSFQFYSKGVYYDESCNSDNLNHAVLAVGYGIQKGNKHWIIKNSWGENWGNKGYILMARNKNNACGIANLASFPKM
Protocol: The optimal substrate for cathepsin K, acetyl-lysine-histidine-proline-lysine-amino carbamoyl coumarin, was identified from screening a combinatorial library of fluorogenic peptide substrates (Harris, J. L., B. J. Backes, et al., Proc Natl Acad Sci USA 2000, 97(14), 7754-9). Kinetic measurements are performed in a total reaction volume of 30 μl in 384-well microtiter plates. […] The reactions are initiated by adding the substrate, acetyl-lysine-histidine-proline-lysine-amino carbamoyl coumarin, to a final concentration of 40 μM. The rate of substrate hydrolysis is measured by monitoring the increase in fluorescence at an excitation wavelength of 380 nm and an emission wavelength of 450 nm that results from cleavage of the aniline bond in the substrate by the enzyme. The apparent inhibition constants for the compounds are determined from the enzyme progress curves ([…]. Elrod, et al., Anal Biochem 2000, 286(1), 45-50) and are then used to calculate the inhibition constants for competitive inhibitors. Selectivity for cathepsin S in the presence of cathepsin isozymes was determined by the ratio of the cathepsin isozyme inhibition constant of a compound of the present invention to the cathepsin S inhibition constant of the same compound.

Cathepsin S = Cathepsin S (Homo sapiens, UniProt P25774); assay: Cathepsin S inhibition assay (fluorogenic peptide substrate); assay type: biochemical; conditions: Table II, compounds of Formula I; read-out: Ki Cat. S
Cathepsin S, sequence (P25774 115-331, species assumed): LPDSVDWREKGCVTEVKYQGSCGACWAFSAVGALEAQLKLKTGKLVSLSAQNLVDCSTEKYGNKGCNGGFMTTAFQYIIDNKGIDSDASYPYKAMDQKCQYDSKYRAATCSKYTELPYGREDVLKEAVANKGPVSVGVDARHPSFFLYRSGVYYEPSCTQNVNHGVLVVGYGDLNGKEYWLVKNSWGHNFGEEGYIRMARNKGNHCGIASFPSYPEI
Protocol: “Inhibition constant”, Ki, is the dissociation constant of the enzyme-inhibitor complex, or the reciprocal of the binding affinity of the inhibitor to the enzyme. […] The inhibited rates are then fit by nonlinear regression to the following equation: […]
The assumption being made for the classical inhibition described above is that the free inhibitor concentration is equal to the total inhibitor concentration.
Kinetic measurements are performed in a total reaction volume of 30 μl in 384-well microtiter plates. […] The reactions are initiated by adding the substrate, acetyl-histidine-proline-valine-lysine-amino carbamoyl coumarin, to a final concentration of 50 μM. The rate of substrate hydrolysis is measured by monitoring the increase in fluorescence at an excitation wavelength of 380 nm and an emission wavelength of 450 nm that results from cleavage of the aniline bond in the substrate by the enzyme.

Selectivity for Cat. S over Cat. K (Cathepsin K) | Ki (Cathepsin S) [nM] | SMILES
++ (++, >100) | < 100 | COc1ccc(NCCNC(=O)[C@H](CC2CCCCC2)NC(=O)c2cccc(C#N)c2)cc1 [Compound 120, (S)-3-Cyano-N-{2-cyclohexyl-1-[2-(4-methoxy-phenylamino)-ethylcarbamoyl]-ethyl}-benzamide]
++ (++, >100) | < 100 | O=C(N[C@@H](CC1CCCCC1)C(=O)NCCNc1ccc(OC(F)(F)F)cc1)c1ccc(-c2ccccc2)s1 [Compound 62, 5-Phenyl-thiophene-2-carboxylic acid (S)-{2-cyclohexyl-1-[2-(4-trifluoromethoxy-phenylamino)-ethylcarbamoyl]-ethyl}-amide]
+++ (+++, >1000) | < 100 | CC[C@H](C(=O)N[C@@H](CC1CCCCC1)C(=O)NCCNc1ccc(OC)cc1)c1ccccc1 [Compound 164, N-{2-Cyclohexyl-1-(S)-[2-(4-methoxy-phenylamino)-ethylcarbamoyl]-ethyl}-2-(S)-phenyl-butyramide]
+++ (+++, >1000) | < 100 | COc1ccc(NCCNC(=O)[C@H](CCC2CCCCC2)NC(=O)c2cccc(C#N)c2)cc1 [Compound 139, (S)-3-Cyano-N-{3-cyclohexyl-1-[2-(4-methoxy-phenylamino)-ethylcarbamoyl]-propyl}-benzamide]
+++ (+++, >1000) | < 100 | COc1ccc(NCCNC(=O)[C@H](Cc2cccc(F)c2)NC(=O)c2cccc(C)c2)cc1 [Compound 236, (S)-N-{2-(3-Fluoro-phenyl)-1-[2-(4-methoxy-phenylamino)-ethylcarbamoyl]-ethyl}-3-methyl-benzamide]
+++ (+++, >1000) | < 100 | COc1ccc(NCCNC(=O)[C@H](CC2CCCCC2)NC(=O)c2cccc(Cl)c2F)cc1 [Compound 155, (S)-3-Chloro-N-{2-cyclohexyl-1-[2-(4-methoxy-phenylamino)-ethylcarbamoyl]-ethyl}-2-fluoro-benzamide]
+++ (+++, >1000) | < 100 | CC[C@@H](C(=O)N[C@@H](CCC1CCCCC1)C(=O)NCCNc1ccc(OC)cc1)c1ccccc1 [Compound 75, N-{3-Cyclohexyl-1-(S)-[2-(4-methoxy-phenylamino)-ethylcarbamoyl]-propyl}-2-(R)-phenyl-butyramide]
++ (++, >100) | < 100 | COc1ccc(NCCNC(=O)[C@H](CC2CCCCC2)NC(=O)c2cc(-c3ccc(Cl)cc3)cs2)cc1 [Compound 189, (S)-4-(4-Chloro-phenyl)-thiophene-2-carboxylic acid {2-cyclohexyl-1-[2-(4-methoxy-phenylamino)-ethylcarbamoyl]-ethyl}-amide]
+ (+, >10) | < 100 | O=C(N[C@@H](CC1CCCCC1)C(=O)NCCNc1ccc(OC(F)(F)F)cc1)c1ccc(OC(F)F)cc1 [Compound 60, N-(S)-{2-cyclohexyl-1-[2-(4-trifluoromethoxy-phenylamino)-ethylcarbamoyl]-ethyl}-4-difluoromethoxy-benzamide]
+++ (+++, >1000) | < 100 | COc1ccc(NCCNC(=O)[C@H](CC2CCCCC2)NC(=O)c2ccc(F)c(C(F)(F)F)c2)cc1 [Compound 149, (S)-N-{2-Cyclohexyl-1-[2-(4-methoxy-phenylamino)-ethylcarbamoyl]-ethyl}-4-fluoro-3-trifluoromethyl-benzamide]
+ (+, >10) | < 100 | Cc1cc(C)nc(Nc2ccc(C(=O)N[C@@H](CC3CCCCC3)C(=O)NCCNc3ccc(OC(F)(F)F)cc3)cc2)n1 [Compound 92, N-(S)-{2-cyclohexyl-1-[2-(4-trifluoromethoxy-phenylamino)-ethylcarbamoyl]-ethyl}-4-(4,6-dimethyl-pyrimidin-2-ylamino)-benzamide]
++ (++, >100) | < 1000 | O=C(Cn1cnnn1)N[C@@H](CC1CCCCC1)C(=O)NCCNc1ccc(OC(F)(F)F)cc1 [Compound 46, 3-Cyclohexyl-2-(S)-(2-tetrazol-1-yl-acetylamino)-N-[2-(4-trifluoromethoxy-phenylamino)-ethyl]-propionamide]
++ (++, >100) | < 100 | O=C(N[C@@H](CC1CCCCC1)C(=O)NCCNc1ccc(OC(F)(F)F)cc1)c1ccc(-c2ccccc2F)s1 [Compound 201, (S)-5-(2-Fluoro-phenyl)-thiophene-2-carboxylic acid {2-cyclohexyl-1-[2-(4-trifluoromethoxy-phenylamino)-ethylcarbamoyl]-ethyl}-amide]
++ (++, >100) | < 1000 | COc1ccc(NCCNC(=O)[C@H](Cc2ccc(-c3ccc(CO)cc3)cc2)NC(=O)c2cccc(C)c2)cc1 [Compound 282, (S)-N-{2-(4′-Hydroxymethyl-biphenyl-4-yl)-1-[2-(4-methoxy-phenylamino)-ethylcarbamoyl]-ethyl}-3-methyl-benzamide]
+ (+, >10) | < 100 | COc1ccc(NCCNC(=O)[C@H](Cc2ccccc2)NC(=O)c2cc(C)c(OC)c(C)c2)cc1 [Compound 21, (S)-4-Methoxy-N-{1-[2-(4-methoxy-phenylamino)-ethylcarbamoyl]-2-phenyl-ethyl}-3,5-dimethyl-benzamide]
++ (++, >100) | < 1000 | COc1ccc(NCCNC(=O)[C@H](CCC2CCCCC2)NC(=O)c2cc3cc(Cl)ccc3o2)cc1 [Compound 134, (S)-5-Chloro-benzofuran-2-carboxylic acid {3-cyclohexyl-1-[2-(4-methoxy-phenylamino)-ethylcarbamoyl]-propyl}-amide]
++ (++, >100) | < 100 | COc1ccccc1-c1ccc(C(=O)N[C@@H](CC2CCCCC2)C(=O)NCCNc2ccc(OC(F)(F)F)cc2)o1 [Compound 210, (S)-5-(2-Methoxy-phenyl)-furan-2-carboxylic acid {2-cyclohexyl-1-[2-(4-trifluoromethoxy-phenylamino)-ethylcarbamoyl]-ethyl}-amide]
+++ (+++, >1000) | < 100 | COc1ccc(NCCNC(=O)C(NC(=O)c2cccc(C)c2)c2ccccc2OCc2ccccc2)cc1 (stereo not shown) [Compound 214, N-{(2-Benzyloxy-phenyl)-[2-(4-methoxy-phenylamino)-ethylcarbamoyl]-methyl}-3-methyl-benzamide]
++ (++, >100) | < 1000 | COc1ccc(NCCNC(=O)[C@H](Cc2ccc(-c3cccc([N+](=O)[O-])c3)cc2)NC(=O)c2cccc(C)c2)cc1 [Compound 271, (S)-N-[1-[2-(4-Methoxy-phenylamino)-ethylcarbamoyl]-2-(3′-nitro-biphenyl-4-yl)-ethyl]-3-methyl-benzamide]
++ (++, >100) | < 1000 | COc1ccc(NCCNC(=O)[C@H](Cc2ccc(-c3ccc(Cl)cc3)cc2)NC(=O)c2cccc(C)c2)cc1 [Compound 278, (S)-N-{2-(4′-Chloro-biphenyl-4-yl)-1-[2-(4-methoxy-phenylamino)-ethylcarbamoyl]-ethyl}-3-methyl-benzamide]
